One assay has as its target Shp1 (Homo sapiens (Human), UniProt P29350).
Assay: not given
The following applies: background statement, non-selective; cited from earlier work.
Sequence of Shp1 (P29350 whole entry): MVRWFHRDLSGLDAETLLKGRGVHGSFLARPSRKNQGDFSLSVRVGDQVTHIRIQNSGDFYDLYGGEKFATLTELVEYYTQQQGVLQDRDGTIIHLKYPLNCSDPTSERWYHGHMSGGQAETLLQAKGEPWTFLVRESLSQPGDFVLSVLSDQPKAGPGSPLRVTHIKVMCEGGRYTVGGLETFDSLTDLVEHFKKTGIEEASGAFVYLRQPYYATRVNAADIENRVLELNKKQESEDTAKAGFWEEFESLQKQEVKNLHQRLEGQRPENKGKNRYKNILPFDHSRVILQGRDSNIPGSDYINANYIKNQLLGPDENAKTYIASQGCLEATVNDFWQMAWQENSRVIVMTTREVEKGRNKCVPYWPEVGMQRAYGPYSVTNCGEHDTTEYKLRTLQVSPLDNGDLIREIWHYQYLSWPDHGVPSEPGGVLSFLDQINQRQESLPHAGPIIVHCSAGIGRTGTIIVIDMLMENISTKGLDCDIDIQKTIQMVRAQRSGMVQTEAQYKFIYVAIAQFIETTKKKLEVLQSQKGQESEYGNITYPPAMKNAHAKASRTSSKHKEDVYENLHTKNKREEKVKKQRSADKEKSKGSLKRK
On to `CCOc1ccc(NC(=O)CN2C(=O)/C(=C3\SC(=S)C(CCS(=O)(=O)O)C3=O)c3ccccc32)cc1` (centres unmarked) [CDL 4340-0580], for which the “inhibition of Shp1” value is “also inhibit tumor suppressor Shp1”.

Another assay concerns the target T1, Shp2 (Homo sapiens (Human), UniProt Q06124). Put plainly: in vitro phosphotyrosine phosphatase activity (DiFMUP) assay. The assay is classed as biochemical. As to conditions: mean ± spread over n tests. The method, then: All reagents were purchased from commercial suppliers and used without further purification. Melting points were determined using a Barnstead international melting point apparatus and remain uncorrected. ^1H NMR spectra were recorded on a Varian Mercury 400 MHz spectrometer with CDCl3 or DMSO-d6 as the solvent. ^13C NMR spectra are recorded at 100 MHz. All coupling constants are measured in Hertz (Hz) and the chemical shifts (δH and δC) are quoted in parts per million (ppm) relative to TMS (δ0), which was used as the internal standard. High resolution mass spectroscopy was carried out on an Agilent 6210 LC/MS (ESI-TOF). Microwave reactions were performed in CEM 908005 model and Biotage initiator 8 machines. HPLC analysis was performed using a JASCO HPLC system equipped with a PU-2089 Plus quaternary gradient pump and a UV-2075 Plus UV-VIS detector, using an Alitech Kromasil C-18 column (150×4.6 mm, 5 μm). Thin layer chromatography was performed using silica gel 60 F254 plates (Fisher), with observation under UV when necessary. Anhydrous solvents (acetonitrile, dimethyl formamide, ethanol, isopropanol, methanol and tetrahydrofuran) were used as purchased from Aldrich. HPLC grade solvents (methanol, acetonitrile and water) were purchased from Burdick and Jackson for HPLC and mass analysis.
Target sequence in this assay (Q06124 whole entry): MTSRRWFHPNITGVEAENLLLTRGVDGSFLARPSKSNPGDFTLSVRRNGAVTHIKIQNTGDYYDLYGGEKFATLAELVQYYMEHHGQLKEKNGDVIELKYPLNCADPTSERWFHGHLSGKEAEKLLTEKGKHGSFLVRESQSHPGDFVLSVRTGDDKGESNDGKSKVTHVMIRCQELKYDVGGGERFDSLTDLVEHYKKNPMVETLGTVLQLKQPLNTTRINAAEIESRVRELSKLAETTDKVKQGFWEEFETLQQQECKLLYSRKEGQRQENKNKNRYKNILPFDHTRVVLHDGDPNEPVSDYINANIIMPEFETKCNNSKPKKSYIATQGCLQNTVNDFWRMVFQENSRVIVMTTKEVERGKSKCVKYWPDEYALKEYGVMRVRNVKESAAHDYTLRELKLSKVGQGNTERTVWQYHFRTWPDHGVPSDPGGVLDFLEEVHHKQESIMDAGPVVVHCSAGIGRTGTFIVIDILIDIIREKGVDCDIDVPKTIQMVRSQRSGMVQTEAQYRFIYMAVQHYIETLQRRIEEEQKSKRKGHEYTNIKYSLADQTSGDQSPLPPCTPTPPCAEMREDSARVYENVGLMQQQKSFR
As usually defined, the IC50 is the concentration that gives 50% inhibition. Low values mean greater potency in that assay, high ones weaker potency in that assay. Take `COc1cccc(N2CCN(S(=O)(=O)c3ccc4c(c3)CCN4C(=O)CCC(=O)O)CC2)c1` [XW2-038F, 4-(5-(4-(3-Methoxyphenyl)piperazin-1-ylsulfonyl)indolin-1-yl)-4-oxobutanoic acid]: the IC50 came out at 4.7 ± 4.4 µM.
Take `O=C(O)CNC(=O)N1CCc2cc(S(=O)(=O)N3CCN(c4cccc(Cl)c4)CC3)ccc21` [JHE-01-137, 2-(5-(4-(3-Chlorophenyl)piperazin-1-ylsulfonyl)indoline-1-carboxamido)acetic acid]: the half-maximal inhibitory concentration (IC50) came to 4.6 ± 0.3 µM.
The same measure, in the same setting: the figure for `Cc1ccc(Cl)cc1N1CCN(S(=O)(=O)c2ccc3c(c2)CCN3C(=O)CCC(=O)O)CC1` [XW2-125B, 4-(5-(4-(5-Chloro-2-methylphenyl)piperazin-1-ylsulfonyl)indolin-1-yl)-4-oxobutanoic acid] is 1.5 µM; for `O=C(Nc1ccccc1)N1CCc2cc(S(=O)(=O)N3CCN(c4cccc(Cl)c4)CC3)ccc21` [JF033, 5-(4-(3-Chlorophenyl)piperazin-1-ylsulfonyl)-N-phenylindoline-1-carboxamide] it is 11.7 ± 1.4 µM; for `CC1Cc2cc(S(=O)(=O)N3CCN(c4cccc(Cl)c4)CC3)ccc2N1C(=O)C(F)(F)F` (centres unmarked) [JHE-02-117, 1-(5-(4-(3-chlorophenyl)piperazin-1-ylsulfonyl)-2-methylindolin-1-yl)-2,2,2-trifluoroethanone] it is 47 ± 17.7 µM.
As for `Cc1ccc(N2CCN(S(=O)(=O)c3ccc4c(c3)CCN4C(=O)CCC(=O)O)CC2)cc1Cl` [XW3-006, 4-(5-(4-(3-Chloro-4-methylphenyl)piperazin-1-ylsulfonyl)indolin-1-yl)-4-oxobutanoic acid], 16.6 ± 3.6 µM corresponded to half-maximal inhibition (IC50).
Still for that read-out and setting: the figure for `CC(C)c1ccc(NC(=O)N2CCc3cc(S(=O)(=O)N4CCN(c5cccc(Cl)c5)CC4)ccc32)cc1` [JHE-02-068B, 5-(4-(3-Chlorophenyl)piperazin-1-ylsulfonyl)-N-(4-isopropylphenyl)indoline-1-carboxamide] is 4.1 ± 1 µM.
`O=C(Nc1ccccc1C(F)(F)F)N1CCc2cc(S(=O)(=O)N3CCN(c4cccc(Cl)c4)CC3)ccc21` [JF040, 5-(4-(3-Chlorophenyl)piperazin-1-ylsulfonyl)-N-(2-(trifluoromethyl)phenyl)indoline-1-carboxamide] yielded an IC50 of 9 ± 1.7 µM.
Same read-out and setting: the same measure for `O=C(c1cc(Cl)cc(Cl)c1)N1CCc2cc(S(=O)(=O)N3CCN(c4cccc(Cl)c4)CC3)ccc21` [JF025, (5-(4-(3-Chlorophenyl)piperazin-1-ylsulfonyl)indolin-1-yl)(3,5-dichlorophenyl)methanone]: 8.2 ± 2.6 µM; for `O=C(Cc1ccc(Cl)cc1)N1CCc2cc(S(=O)(=O)N3CCN(c4cccc(Cl)c4)CC3)ccc21` [JHE-02-063B, 2-(4-Chlorophenyl)-1-(5-(4-(3-chlorophenyl)piperazin-1-ylsulfonyl)indolin-1-yl)ethanone]: 8 ± 1.9 µM; for `O=C(c1ccc(Cl)cc1)N1CCc2cc(S(=O)(=O)N3CCN(c4cccc(Cl)c4)CC3)ccc21` [JF021, (4-Chlorophenyl)(5-(4-(3-chlorophenyl)piperazin-1-ylsulfonyl)indolin-1-yl)methanone]: 10.4 ± 2 µM.
On the same count and under the same terms, the figure for `O=C(C1CC1)N1CCc2cc(S(=O)(=O)N3CCN(c4cccc(Cl)c4)CC3)ccc21` [JF027, (5-(4-(3-Chlorophenyl)piperazin-1-ylsulfonyl)indolin-1-yl)(cyclopropyl)methanone] is 8.5 ± 2 µM.
As to `CCOC(=O)C(NC(=O)N1CCc2cc(S(=O)(=O)N3CCN(c4cccc(Cl)c4)CC3)ccc21)C(C)C` (centres unmarked) [JHE-02-010C, Ethyl 2-(5-(4-(3-chlorophenyl)piperazin-1-ylsulfonyl)indoline-1-carboxamido)-3-methylbutanoate], it took 7.7 ± 2.4 µM to reach half-maximal inhibition (IC50).
Consider `O=C(Nc1ccccc1Cl)N1CCc2cc(S(=O)(=O)N3CCN(c4cccc(Cl)c4)CC3)ccc21` [JHE-02-065B, N-(2-Chlorophenyl)-5-(4-(3-chlorophenyl)piperazin-1-ylsulfonyl)indoline-1-carboxamide], for which the IC50 was 3.2 ± 0.5 µM.
`O=C(O)CCC(=O)N1CCc2cc(S(=O)(=O)N3CCN(c4cc(Cl)cc(Cl)c4)CC3)ccc21` [XW2-124B, 4-(5-(4-(3,5-Dichlorophenyl)piperazin-1-ylsulfonyl)indolin-1-yl)-4-oxobutanoic acid] showed a 50% inhibitory concentration (IC50) of 4.5 ± 1.2 µM.
Same read-out and setting: the same measure for `COc1ccc(N2CCN(S(=O)(=O)c3ccc4c(c3)CCN4C(=O)CCC(=O)O)CC2)cc1` [XW2-038E, 4-(5-(4-(4-Methoxyphenyl)piperazin-1-ylsulfonyl)indolin-1-yl)-4-oxobutanoic acid]: 9 ± 5.9 µM; for `CCOC(=O)C(CC(C)C)NC(=O)N1CCc2cc(S(=O)(=O)N3CCN(c4cccc(Cl)c4)CC3)ccc21` (centres unmarked) [JHE-02-012, Ethyl 2-(5-(4-(3-chlorophenyl)piperazin-1-ylsulfonyl)indoline-1-carboxamido)-4-methylpentanoate]: 6 ± 2.8 µM; for `O=C(O)c1cccc(NC(=O)N2CCc3cc(S(=O)(=O)N4CCN(c5cccc(Cl)c5)CC4)ccc32)c1` [JHE-02-020B, 3-(5-(4-(3-Chlorophenyl)piperazin-1-ylsulfonyl)indoline-1-carboxamido)benzoic acid]: 3 ± 0.8 µM.

In a further assay the target is T1, Shp2.
Assay: not given
As to conditions: background statement; cited from earlier work.
Target sequence in this assay (Q06124 whole entry, species assumed): as the sequence (Q06124 whole entry) above
For the compound `CCOc1ccc(NC(=O)CN2C(=O)/C(=C3\SC(=S)C(CCS(=O)(=O)O)C3=O)c3ccccc32)cc1` (centres unmarked) [CDL 4340-0580], the “inhibition of Shp2” value is recorded as “ability to inhibit Shp2”.
